System: Peripheral blood mononuclear cells (PBMC) from HPA-1b1b women
Experiment: T-cell proliferation assay (3H-thymidine incorporation) of PBMC stimulated with HPA-1a/1b 15-mer peptides, HPA-1b1b women
Assay type: cell-based, human
Conditions: peptide 20 μg/mL; for immunodominance in stimulating specific T-cell responses in vitro: HPA-1a alloimmunised HPA-1b1b women; for strength of PBMC proliferative response (in words): HPA-1b1b women
Procedure: The cells were stimulated with a panel of 15-mer peptides corresponding to the sequences of the HPA-1a and 1b alloantigens containing Leu33 and Pro33 respectively (see FIG. 1). Two categories of control donors were utilised; 1 HPA-1b1b unimmunised donor and 11 HPA-1a randomly selected female donors. Testing of both patients and controls was carried out in cell culture conditions designed to favour proliferation by previously activated T-cells, rather than primary responses.
The human platelet membrane GPIIIa amino acid sequence reported by Frachet et al Mol. Biol. Rep. 1990, vol 14, 27-33 (genebank accession no: M35999) was used as the basis for production of the HPA-1a and HPA-1b GPIIIa synthetic peptides. Two panels of 15-mer peptides were synthesised corresponding to the sequences of the HPA-1 polymorphic region, with either the Leu-33 or Pro-33 at each possible position (see FIG. 1). One set of the 15-mer peptides contained the leucine polymorphism and the other set of 15 contained the proline polymorphism. To ensure purity each panel was synthesized by f-moc chemistry. The peptides were reconstituted to a concentration of 2.0 mg/ml and used for stimulation of PBMC at 20 μg/mL in culture.
Mononuclear cells were recovered from samples of peripheral blood of all patients and control donors by density gradient centrifugation technique (Lymphoprep; Nycomed, Denmark) according to the manufacturer's instructions. The cells were then manually counted by hemocytometer.
Peripheral blood mononuclear cells were cultured at a concentration of 1.25×10^6 cells per mL in Alpha Modification of Eagle's Medium (Sigma Diagnostic, St. Louis, Mo., USA.) supplemented with 4 mmol/l L-glutamine (Gibco, Paisley, UK), 100 μg/ml streptomycin sulphate (Sigma Diagnostic, St. Louis, Mo., USA), 100 u/mL sodium benzylpenicillin G (Sigma Diagnostic, St. Louis, Mo., USA), 20 mmol/L HEPES, PH 7.2 (Sigma Diagnostic, St. Louis, Mo., USA) and 5% autologous serum or AB serum. Twelve microlitres of synthetic HPA-1a/1b peptides and control antigens (PPD, KLH and ConA) were each added to appropriate wells of the microtitre plates before the cell culture suspension was layered. The culture plates were incubated at 37° C. in a humidified atmosphere of 95% air and 5% CO2 for 5 days. T-cell proliferation in cultures was estimated from the incorporation of ^3H-thymidine in triplicate 100 μL samples withdrawn from the plates 5 days after stimulation. T-cell proliferation results were presented either as the mean counts per minute (CPM)±SD of the triplicate samples or as a stimulation index (SI) expressing the ratio of mean CPM in stimulated versus unstimulated control cultures. A SI >3 was interpreted as representing a positive response.

Row | Substance | immunodominance in stimulating specific T-cell responses in vitro | percentage of HPA-1a alloimmunised HPA-1b1b women in whom the peptide elicited proliferation of T-cells (5 days, SI >3 = positive response, 14 alloimmunised women) | strength of PBMC proliferative response (in words) (5 days)
1 | SEQ ID No:1: 15-mer synthetic HPA-1a (Leu-33) GPIIIa peptide, polymorphism in the C-terminal part of the peptide (VSPMCAWCSDEALPL; listed as Homo sapiens) | immunodominant | approximately 50% | –
2 | SEQ ID No:2: 15-mer synthetic HPA-1a (Leu-33) GPIIIa peptide, polymorphism in the C-terminal part of the peptide (SPMCAWCSDEALPLG; listed as Homo sapiens) | immunodominant | – | –
3 | SEQ ID No:3: 15-mer synthetic HPA-1a (Leu-33) GPIIIa peptide, polymorphism in the C-terminal part of the peptide (PMCAWCSDEALPLGS; listed as Homo sapiens) | immunodominant | – | –
4 | SEQ ID No:4: 15-mer synthetic HPA-1a (Leu-33) GPIIIa peptide, polymorphism in the C-terminal part of the peptide (MCAWCSDEALPLGSP; listed as Homo sapiens) | immunodominant | – | –
5 | SEQ ID No:5: 15-mer synthetic HPA-1a (Leu-33) GPIIIa peptide, polymorphism in the C-terminal part of the peptide (CAWCSDEALPLGSPR; listed as Homo sapiens) | immunodominant | – | –
6 | SEQ ID No:6: 15-mer synthetic HPA-1a (Leu-33) GPIIIa peptide, polymorphism in the C-terminal part of the peptide (AWCSDEALPLGSPRC; listed as Homo sapiens) | immunodominant | – | strong responses in particular individuals
7 | SEQ ID No:7: 15-mer synthetic HPA-1a (Leu-33) GPIIIa peptide, polymorphism in the C-terminal part of the peptide (WCSDEALPLGSPRCD; listed as Homo sapiens) | immunodominant | – | strong responses in particular individuals

— patent US20070042949A1, “Pharmaceutical compositions comprising an epitope of platelet gpiiia protein” (priority 2003, published 2007)
